Literature values as cited in patent US11779591B2, “Compositions containing decitabine, 5azacytidine and tetrahydrouridine and uses thereof” (Epidestiny, Inc., priority 2015, dated 2023).

Conditions: rapid deamination by CDA

SMILES: Nc1ccn([C@@H]2O[C@H](CO)[C@@H](O)[C@@H]2[18F])c(=O)n1 [FAC, 1-(2′-deoxy-2′-[18F]-fluoro-β-D-arabinofuranosyl)cytosine]
- distribution into solid tissues such as the liver and kidneys: did not adequately distribute into solid tissues
